PubChem BioAssay (NCI)
Several values for one entry are separate records, joined by “and”; a condition that tells them apart may be missing. Identical values can stand only once.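 Assay format: 96-well plates, 48-hour exposure. GI50: concentration for 50% inhibition of growth. TGI: total growth inhibition.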

Tested on: MDA-MB-468 breast
Assay: growth of human tumour cells (NCI), 48 h

SMILES	GI50	TGI [nM]
COc1ccc(/C=C2\CCCC3=C2NC(C)=NC3c2ccc(OC)c(OC)c2)cc1OC (stereo not given)	1290 nM	8180
CS(=O)(=O)Nc1cc(-c2ccc3ncnc(Nc4ccc5c(cnn5Cc5ccc(F)cc5)c4)c3c2)cnc1Cl	281 nM	1520
C=C(C)CCC(C)N1CCC(N2CCC(C(=O)NCCc3ccccc3)CC2)CC1 (stereo not given)	2200 nM	15800
C[C@H](CS(C)(=O)=O)Nc1ncc2cc(Oc3ccc(F)cc3F)c(=O)n(C)c2n1	> 25000 nM	> 25000
Fc1ccc(Nc2nccc(-c3c(-c4ccc(C(F)(F)F)cc4)nn4ncccc34)n2)cc1F	> 20000 nM	> 25000
CCCCC[C@H]1C/C=C2/C(=O)C(Cl)=C[C@@H]2C/C=C\CCCC(=O)O[C@@H](CCCCC)C/C=C2/C(=O)C(Cl)=C[C@@H]2C/C=C\CCCC(=O)O1	366 nM	862
COC(=O)[C@@H]1CCCN1C(=O)[C@@H]1CCCN1C(=O)[C@@H](Cc1c[nH]c2ccccc12)NC(=S)Nc1cc(C(F)(F)F)cc(C(F)(F)F)c1	2050 nM	7020
C=C[C@]1(C)C=C2C(=O)[C@@]3(O)OC[C@@]4(CCCC(C)(C)C43O)C2(O)C(O)C1 (stereo not given in full)	1290 nM	3160
COc1cc(/C=C(/c2ccccc2)[N+](=O)[O-])c(OC)c2c1OCO2	1330 nM	2730
Nc1nc(Nc2cccc(F)c2)nc2ccccc12	13600 nM	30800
CCN1C(=O)N(CC)C2C1NN=c1s/c(=C3\C(=O)N(C)c4ccccc43)c(=O)n12 (stereo not given)	354 nM	6010
CC1=C[C@H]2O[C@@H]3C[C@H]4OC(=O)/C=C\C=C\[C@H]([C@@H](C)O)OCC[C@@H](C)[C@H](O)C(=O)OC[C@@]2(CC1)[C@]4(C)[C@]31CO1	3.71 nM and 1.43 nM	2.28
Cn1cc(-c2cc(N)n3nc(-c4cn(C)c5ccc(F)cc45)cc3n2)c2cc(F)ccc21	1590 nM	3450
Cc1cc(N2CCCC2)nc(N(CCCNc2ccnc3cc(Cl)ccc23)Cc2ccc3c(c2)OCO3)n1	1180 nM	3550
CCOC(=O)N1CCN(S(=O)(=O)c2oc(-c3ccc(Cl)cc3)nc2C#N)CC1	1890 nM	4090
CC1=CC(=O)C(C(C)=Nc2ccccc2Cl)C(=O)O1 (stereo not given)	> 100000 nM	> 100000
Cn1cc(-c2ccc(CNc3cc(-c4cnc5cc(OCCCN6CCCC6)ccn45)ncn3)cc2)cn1	1660 nM	3210
Clc1ccc2nc(Oc3ccccc3)cnc2c1	> 100000 nM	> 100000
O=C(NN1C(=O)CSC1c1ccc(Cl)cc1)c1[nH]c2ccc(F)cc2c1-c1ccccc1 (stereo not given)	8040 nM	25100
CCCCCc1c(C)[nH]c(/C=C2\N=C(c3ccc[nH]3)C=C2Oc2ccc(Cl)cc2)c1C	24.3 nM	2180
